Patent publication US11834463B2, “High affinity macrocyclic FKB51-inhibitors for treatment of psychiatric disorders” (priority 2020, dated 2023)
Read-outs that look alike come from different tables or passages of the source.

Key:
FKBP12 = FKBP12 (Homo sapiens, UniProt P62942); experiment: competitive fluorescence polarization assay, binding to FKBP12
Experimental: (§1) All macrocyclic compounds were tested in a competitive fluorescence polarization assay for binding towards FKBP51 as well as the homologs FKBP12, FKBP12.6 and FKBP52 (Table 1).
(§2) Example 8: […] of the Macrocyclic FKBP51 Ligands by SPPS

FKBP51FK1 = molecular target: T1, FKBP51FK1 (Homo sapiens, UniProt Q13451); experiment: biochemical
T1 sequence (Q13451 42-130 limits assumed): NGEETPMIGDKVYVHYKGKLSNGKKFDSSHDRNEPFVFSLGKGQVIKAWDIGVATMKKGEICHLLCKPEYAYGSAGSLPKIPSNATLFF
Experimental: as §1, §2

FKBP12.6 = FKBP12.6 (Homo sapiens, UniProt P68106); experiment: competitive fluorescence polarization assay, binding to FKBP12.6
Experimental: as §1, §2

[1] = Table 1, competitive Fluorescence Polarization Assay, read-out: Ki [nM] FKBP12
[2] = Ki [nM] FKBP51FK1, Table 1, competitive Fluorescence Polarization Assay
[3] = Table 1, competitive Fluorescence Polarization Assay, read-out: Ki [nM] FKBP12.6
[4] = affinity, same values as Table 2 FKBP51FK1

Chain of FKBP12 (P62942 whole entry): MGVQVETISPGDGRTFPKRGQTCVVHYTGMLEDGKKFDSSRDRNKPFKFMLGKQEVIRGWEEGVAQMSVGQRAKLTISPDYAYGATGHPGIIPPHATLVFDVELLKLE
Chain of FKBP12.6 (P68106 whole entry): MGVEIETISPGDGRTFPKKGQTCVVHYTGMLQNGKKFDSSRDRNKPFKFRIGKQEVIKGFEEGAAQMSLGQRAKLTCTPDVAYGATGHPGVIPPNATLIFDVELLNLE

SMILES	Ki (FKBP12; [1]) [nM]	Ki (FKBP51FK1; [2]) [nM]	Ki (FKBP12.6; [3]) [nM]	further results
COc1ccc(CC[C@H]2OC(=O)[C@@H]3CCCCN3C(=O)[C@@H](C3CCCCC3)c3cc(OC)c(OC)c(c3)OCC/C=C\COc3cccc2c3)cc1OC [36-(Z)]	118	77	96	–
COc1ccc(CC[C@H]2OC(=O)[C@@H]3CCCCN3C(=O)[C@@H](C3CCCCC3)NC(=O)CN(C)C(=O)COc3cccc2c3)cc1OC [Compound 89, (2R,5S,12R)-12-cyclohexyl-2-[2-(3,4-dimethoxyphenyl)ethyl]-16-methyl-3,19-dioxa-10,13,16-triazatricyclo[18.3.1.0^5,10]tetracosa-1(24),20,22-triene-4,11,14,17-tetrone]	–	–	–	Ki (FKBP12; Table 2, read-out: FKBP12 Ki): > 80000 nM; Ki (FKBP51FK1; [4]): 3100 nM; Ki (FKBP12.6; Table 2, read-out: FKBP12.6 Ki): > 80000 nM
COc1ccc(CC[C@H]2OC(=O)[C@@H]3CCCCN3C(=O)[C@@H](C3CCCCC3)NC(=O)[C@@H]3CCCN3C(=O)COc3cccc2c3)cc1OC [Compound 92, (9S,12R,19S,22R)-12-cyclohexyl-22-[2-(3,4-dimethoxyphenyl)ethyl]-2,21-dioxa-5,11,14-triazatetracyclo[21.3.1.0^5,9.0^14,19]heptacosa-1(26),23(27),24-triene-4,10,13,20-tetrone]	–	–	–	Ki (FKBP12; Table 2, read-out: FKBP12 Ki): > 80000 nM; affinity (in words) (FKBP51FK1): substantially reduced affinity; Ki (FKBP12.6; Table 2, read-out: FKBP12.6 Ki): > 80000 nM
COc1ccc(CC[C@H]2OC(=O)[C@@H]3CCCCN3C(=O)[C@@H](C3CCCCC3)NC(=O)C3(CCC3)NC(=O)COc3cccc2c3)cc1OC [Compound 87, (2′R,5'S,12′R)-12′-cyclohexyl-2′-[2-(3,4-dimethoxyphenyl)ethyl]-3′, 19′-dioxa-10′, 13′, 16′-triazaspiro[cyclobutane-1,15′-tricyclo[18.3.1.0^5,10° ]tetracosane]-1′(24′),20′, 22′-triene-4′, 11′, 14′, 17′-tetrone]	–	–	–	Ki (FKBP12; Table 2, read-out: FKBP12 Ki): > 80000 nM; Ki (FKBP51FK1; [4]): 400 nM; Ki (FKBP12.6; Table 2, read-out: FKBP12.6 Ki): > 80000 nM
COc1ccc(CC[C@H]2OC(=O)[C@@H]3CCCCN3C(=O)[C@@H](C3CCCCC3)CC(O)C(O)COCCOc3cccc2c3)cc1OC (stereo partly drawn) [Compound 82, (2R,5S,12R)-12-cyclohexyl-2-[2-(3,4-dimethoxyphenyl)ethyl]-14,15-dihydroxy-3,17,20-trioxa-10-azatricyclo[19.3.1.0^5,10]pentacosa-1(25),21,23-triene-4,11-dione]	–	–	–	binding to FKBP12 (in words) (FKBP12): did not bind; Ki (FKBP51FK1; Ki, bound to FKBP51, text b114): 1200 nM; binding to FKBP12.6 (in words) (FKBP12.6): did not bind
COc1ccc(CC[C@H]2OC(=O)[C@@H]3CCCCN3C(=O)[C@@H](C3CCCCC3)c3cc(OC)c(c(OC)c3)OCCCCCOc3cccc2c3)cc1OC [Compound 40]	204	102	198	–
COc1ccc(CCC2OC(=O)C3CCCCN3C(=O)C(C3CCCCC3)c3cc(OC)c(OC)c(c3)OCC(O)C(O)COc3cccc2c3)cc1OC (single isomer, unassigned) [Compound 64a]	23	4	10	–
COc1ccc(CC[C@H]2OC(=O)[C@@H]3CCCCN3C(=O)[C@@H](C3CCCCC3)NC(=O)[C@@H]3CCC[C@H]3NC(=O)COc3cccc2c3)cc1OC [Compound 94, (2R,5S,12R,15R,19R)-12-cyclohexyl-2-[2-(3,4-dimethoxyphenyl)ethyl]-3,23-dioxa-10,13,20-triazatetracyclo[22.3.1.0^5,10.0^15,19]octacosa-1(28),24,26-triene-4,11,14,21-tetrone]	–	–	–	Ki (FKBP12; Table 2, read-out: FKBP12 Ki): > 80000 nM; Ki (FKBP51FK1; [4]): 1800 nM; Ki (FKBP12.6; Table 2, read-out: FKBP12.6 Ki): > 80000 nM
COc1ccc(CC[C@H]2OC(=O)[C@@H]3CCCCN3C(=O)[C@@H](C3CCCCC3)c3cc(OC)c(OC)c(c3)OCCCOCCCCOc3cccc2c3)cc1OC [Compound 46]	449	80	116	–
COc1ccc(CC[C@H]2OC(=O)[C@@H]3CCCCN3C(=O)[C@@H](C3CCCCC3)c3cc(OC)c(OC)c(c3)OCCC(=O)CCOc3cccc2c3)cc1OC [Compound 61a]	38	8	22	–
COc1ccc(CC[C@H]2OC(=O)[C@@H]3CCCCN3C(=O)[C@@H](C3CCCCC3)c3cc(OC)c(c(OC)c3)OCC/C=C\COc3cccc2c3)cc1OC [32-(Z)]	189	80	237	–
COc1ccc(CC[C@H]2OC(=O)[C@@H]3CCCCN3C(=O)[C@@H](C3CCCCC3)c3cc(OC)c(c(OC)c3)OCCCCOc3cccc2c3)cc1OC [Compound 39]	159	53	191	–
COc1ccc(CC[C@H]2OC(=O)[C@@H]3CCCCN3C(=O)[C@@H](C3CCCCC3)c3cc(OC)c(OC)c(c3)OCCCOC/C=C/COc3cccc2c3)cc1OC [38-(E)]	269	93	144	–
COc1ccc(CC[C@H]2OC(=O)[C@@H]3CCCCN3C(=O)[C@@H](C3CCCCC3)c3cc(OC)c(OC)c(c3)OCCOC/C=C\COc3cccc2c3)cc1OC [37-(Z)]	270	113	190	–
COc1ccc(CC[C@H]2OC(=O)[C@@H]3CCCCN3C(=O)[C@@H](C3CCCCC3)c3cc(OC)c(OC)c(c3)OCCOC/C=C/COc3cccc2c3)cc1OC [37-(E)]	182	46	74	–
